The source of these data is US20250009743A1, “METHODS OF TREATING CANCERS USING STING AGONISTS” (Dana-Farber Cancer Institute, Inc., priority 2021, published 2025).

A word on the IC50: it is the point on the concentration scale where inhibition reaches its midpoint. High values mean weaker potency in that assay, low ones greater potency in that assay.

The subject of one experiment is BP tumor cells. Briefly: Pro-inflammatory cytokine expression in BP tumor cells (RT-qPCR, IFNβ ELISA). The settings on record: olaparib two days. The experiment is classed as cell-based, mouse. As for the experimental part:
Total RNA was extracted using RNeasy® Plus Mini Kit (QIAGEN, #74134). An iScript Reverse Transcription Supermix (Bio-Rad, #1708841) was used for the first-strand cDNA synthesis with 1 μg total RNA. Real-time PCR was performed using SYBR™ Select Master Mix (Thermo Fisher, #4472908) with gene-specific primers (mouse/16, forward 5′-[…]-3′, reverse 5′-[…]-3′; mouse//1b, forward 5′-[…]-3′, reverse 5′-[…]-3′; mouse Cxcl1, forward 5′-[…]-3′, reverse 5′-[…]-3′; mouse Ifnb, forward 5′-[…]-3′, reverse 5′-[…]-3′; mouse Ccl5, forward 5′-[…]-3′, reverse 5′-[…]-3′; mouse Cxcl10, forward 5′-[…]-3′, reverse 5′-[…]-3′; mouse Actb, forward 5′-[…]-3′, reverse 5′-[…]-3′; human IL6, forward 5′-[…]-3′, reverse 5′-[…]-3′; human IL1B, forward 5′-[…]-3′, reverse 5′-[…]-3′; human CXCL1, forward 5′-[…]-3′, reverse 5′-[…]-3′; human GAPDH, forward 5′-[…]-3′, reverse 5′-[…]-3′). Relative mRNA levels were calculated using the […]. Mouse Actb and human GAPDH were used as endogenous controls for mouse and human samples, respectively.
Tumor cells were treated with olaparib or DMSO vehicle control for two days. To assess IFNβ production by tumor cells, cell culture supernatants were harvested and subjected to centrifugation at 1,500×g for 10 min at 4° C. to remove floating cells and debris. IFNβ was then detected via mouse IFNβ ELISA Kit (Thermo Fisher, #424001) according to manufacturer's instructions.

The test system of a further experiment is PBM-R tumors. The experiment in a line: Flow cytometry of tumor-infiltrating immune cells in PBM-R tumor-bearing mice. The experiment is classed as in vivo, mouse. The settings on record: 14 days; for STING pathway and activated (CD86^+) conventional DCs (cDCs): FIG. 23D. As for the experimental part:
Tumors were chopped and digested in collagenase buffer as described previously (Ding et al., 2018 Cell Rep 25, 2972-2980.e2975). Single cell suspensions of tumor and ascites were obtained by filtering through 70 um strainers and treated with 1× eBioscience RBC lysis buffer (Thermo Fisher) before staining. Single cells suspensions were incubated with LIVE/DEAD Fixable Aqua Dead Cell Stain (Life Technologies, Cat #L34965) for 30 min and then blocked with anti-CD16/32 (Biolegend, clone 93) for 20 min on ice. Samples were then incubated with appropriate antibodies for 30 min on ice. Foxp3 staining buffer set (eBioscience, Cat #00-5523-00) was applied for intracellular markers staining. For the intracellular cytokine analysis, cells were stimulated with Leukocyte Activation Cocktail (BD Biosciences, Cat #550583) at 37° C. for 4-6 hours prior to FACS staining. The following antibodies were used in this study: antibodies were purchased from BioLegend unless otherwise indicated: CD45 (clone 30-F11), CD3ε (clone 145-2C11), CD4 (clone RM4-5), CD8 (clone 53-6.7), CD44 (clone IM7), CD62L (MEL-14), CD25 (PC61), IFNγ (clone XMG1.2), TNFα (clone MP6-XT22), CD11b (clone M1/70), CD11c […], F4/80 (clone BM8), Ly-6C (clone HK1.4), Ly-6G (clone 1A8), MHC-II (clone M5/114.15.2), CD80 (clone 16-10A1), CD86 (clone GL-1), MHC-I (clone KH114), FoxP3 (clone FJK-16 s; eBioscience), Phospho-IRF-3 (Ser396) (clone D601M, Cell signaling technology) and Phospho-TBK1/NAK (Ser172) (clone D52C2, Cell signaling technology). The following human antibodies were used in this study: cell surface markers includes CD45 (clone H130), CD11b (clone M1/70), CD11c (clone Bu15), CD80 (clone 2D10), CD86 (clone IT2.2), CD14 (clone 63D3), CD15 […], HLA-DR (clone L243) and HLA-A,B,C (clone W6/32); intracellular markers include CD163 (clone GHI/61), CD68 (clone Y1/82A) and CD206 (clone 15-2). Flow cytometry was performed on an LSRII (BD Biosciences) or Fortessa HTS (BD Biosciences) at DFCI Flow Cytometry Core, and all the data were analyzed using FlowJo software.

Experiment [1] concerns PBM tumor cells. Briefly: Cytokine array of medium of PBM cells. The experiment is classed as cell-based, mouse. To be noted: olaparib-treated PBM cells; FIG. 19F. As for the experimental part:
The PBM tumor cells were cultured in 6-well plate for 24 hrs and treated with olaparib or vehicle control. Drug was removed after 24 hrs' treatment, and cells were cultured in fresh medium for another 48 hrs. Cell culture supernatants were obtained by centrifugation at 1,500 g for 5 min at 4° C. to remove all the debris and cells then subjected to Cytokine array analysis (ARY028, R&D system) according to manufactories introduction. Briefly, the cell culture supernatants were mixed with a cocktail of biotinylated detection antibodies, and then incubated with the Mouse Cytokine Array. The array was then incubated with streptavidin-horseradish peroxidase followed by chemiluminescent detection. Array images were analyzed using the Image J software.

Experiment [2] deals with PBM tumor cells. The experiment in a line: Measurement of IC50 value in PBM tumor cells (CellTiter-Glo). The experiment is classed as cell-based. The settings on record: Mus musculus; reference value for the PBM-R3 fold; 72 h. As to the method: Tumor cells were seeded in 96-well plates at a density of 2000-3000/well and allowed to adhere overnight. Cells were then exposed to appropriate concentrations of therapeutic agents (or vehicle control) with continuous exposure for 72 h. Growth inhibition was measured by CellTiter-Glo® 2.0 Cell Viability Assay from Promega according to manufactory's introduction. IC50 values were calculated using non-linear regression model (logarithmic inhibitor vs. normalized response-variable slope) in Graphpad Prism 9.

The subject of experiment [3] is TAMs co-cultured with CD8^+ T cells. The experiment in a line: Co-culture of TAMs with CD8^+ T cells. The experiment is classed as cell-based, mouse. The settings on record: TAMs pre-treated with MSA-2 33 μM, washed off; FIG. 34A. As for the experimental part:
Tumor associated macrophages (TAMs) were isolated from ETP tumors using a mouse CD11b^+ myeloid cell isolation kit (StemCell, #18970) and seeded in 48-well plate at the density of 1×10^5 cells/well, cultured in DMEM growth medium (DMEM+10% FBS+100 μg/mL penicillin-streptomycin) supplemented with 10 ng/ml mouse M-CSF (BioLegend, #576404) and allowed to adhere overnight. TAMs were then treated with or without MSA-2 at the concentration of 33 μM in the median mentioned above for 2 days. MSA-2 was washed off before coculturing TAM with CD8^+ T cells. Mouse CD8^+ T cells were isolated from spleens of FVB/NJ mice using a mouse CD8+ T cell isolation kit (StemCell, #19853) and seeded in the same 48-well plate at the density of 1×10^5 cells/well, cultured alone or cocultured with TAMs in RPMI 1640 supplemented with 10% FBS, 10 ng/ml mouse M-CSF (BioLegend, #576404), 0.055 mM 2-mercaptoethanol, 2 ng/ml IL-2 (Peprotech), 2.5 ng/ml IL-7 (Peprotech) and 50 ng/ml IL-15 (Peprotech) for 2 days. After that, T cells were collected for flow cytometry analysis.

For `O=C(c1cc(Cc2n[nH]c(=O)c3ccccc23)ccc1F)N1CCN(C(=O)C2CC2)CC1` [olaparib], the “IFNB, Ccl5 and Cxcl10 in BP-sgSTING cells” value in the experiment on BP tumor cells (BP-sgSTING cells, FIG. 11D-F) is reported as “failed to up-regulate”. The “pro-inflammatory cytokines (Ifnb, Ccl5 and Cxcl10) in BP tumor cells” value in the experiment on BP tumor cells (control medium or naive BMDM-CM, FIG. 6E) is given as “marked up-regulation”. For the same compound, the “STING pathway and activated (CD86^+) conventional DCs (cDCs)” value with PBM-R tumors was “activated the STING pathway and increased tumor-infiltrating activated (CD86^+) conventional DCs”. For the same compound, in the experiment with PBM tumor cells [1], the “STAT3-regulated chemokines (CCL2, CX3CL1, CCL20 and CXCL1) in CM” value was “significantly increased”. For the same compound, the IC50 in the experiment with PBM tumor cells [2] came out at 560 nM.

Consider `COc1cc2cc(C(=O)CCC(=O)O)sc2cc1OC` [MSA-2], for which the “TAM-mediated suppression of CD8^+ T cells (cytokine production)” value in experiment [3] is reported as “reversed TAM-mediated suppression of CD8^+ T cells”. Moreover, the “proportion of TAMs” value in the experiment on PBM-R tumors (FIG. 23B) is recorded as “dramatically decreased”. Further, the “ratio of M1/M2” value in the experiment on PBM-R tumors (FIG. 23C) is listed as “increase”. Besides, the “STING pathway and activated (CD86^+) conventional DCs (cDCs)” value in the experiment on PBM-R tumors is “activated the STING pathway and increased tumor-infiltrating activated (CD86^+) conventional DCs”.
